Measured values: patent US10301304B2, “Selective inhibitor of phosphatidylinositol 3-kinase-gamma” (VERTEX PHARMACEUTICALS INCORPORATED, priority 2013, dated 2019)
Read-outs that look alike come from different tables or passages of the source. Marks after values point to notes of the source that are not given here.

How the values were obtained:
[1] = tested on: MCF7 cells; test: MCF-7 Proliferation Assay; format: cell-based, human; settings: for IC50: Homo sapiens
Method: The PI3K-Akt signaling pathway regulates many normal cellular processes including cell proliferation, survival and growth that are critical for tumorigenesis. Dysregulation of the PI3K signaling pathway occurs commonly in human cancers. MCF7 is a human breast carcinoma cell line that has an activating E545K PI3Kα heterozygous mutation in the helical domain of the p110α protein leading to hyperactivity of the PI3K-alpha pathway. […] Compounds are added to MCF7 cells, cell proliferation/viability is measured 96 hours post compound treatment using cell titer-glo to measure the ATP content of the cells in the well. Lack of or reduced proliferation is a measure of the extent of PI3K-alpha inhibition.

[2] = tested on: MCP-1 stimulated pAkt in THP-1 cells (PI3K-gamma); test: MCP-1 Stimulated pAkt in THP-1 Cells; format: cell-based; settings: Homo sapiens
Method: Chemokines like MCP-1 bind to their receptors resulting in activation of the PI3K-gamma signaling pathway. PI3K-gamma leads to generation of PIP3 and activation of downstream molecules like PDK-1 and Akt. Akt phosphorylation is a measure of PI3K activity in the cell. In this assay, THP-1 cells (human monocytic cell line) are starved overnight to deplete pAkt levels. Subsequent stimulation with MCP-1 for 3 minutes leads to PI3K-gamma-induced phoshorylation of Akt at the Threonin 308 and Serine 473 sites. Cells were fixed and stained for intracellular phosphoAKT (Ser 473) then analyzed using a BD FACSCalibur™ cytometer resulting in a measure of cellular PI3K-gamma activity.

[3] = tested on: CYP3A4; test: CYP3A4 Induction in Human Hepatocytes; format: in vitro ADME
Method: (§1) CYP activity was determined by monitoring metabolite formation of specific CYP probe substrates (phenacetin for CYP1A2 and testosterone for CYP3A4) using LC-MS/MS. CYP messenger ribonucleic acid (mRNA) was analyzed by RT-PCR to confirm CYP induction potential.

[4] = tested on: CYP1A2; test: CYP1A2 Induction in Human Hepatocytes; format: in vitro ADME
Method: as §1

[5] = tested on: CSF-1 stimulated pAkt in THP-1 cells (PI3Kα/β/δ); test: CSF-1 Stimulated pAkt in THP-1 Cells; format: cell-based; settings: Homo sapiens; THP-1/CSF-1/pAkt, PI3K-alpha/beta/delta dependent; read-out: IC50 Avg +/− SD
Method: Growth factors, cytokines and other ligands of receptor tyrosine kinases, like CSF1, bind to their receptors leading to activation of the class IA PI3K signaling pathway. PI3K activation leads to generation of PIP3 and activation of downstream molecules like PDK-1 and Akt. Akt phosphorylation is a measure of PI3K activity in the cell. THP-1 cells (a human monocytic cell line) are starved overnight to deplete pAkt levels. Stimulation with CSF-1 for 5 minutes leads to PI3Kα/β/δ induced phoshorylation of Akt at the Threonine 308 and Serine 473 sites. Cells were fixed and stained for intracellular phosphoAkt (Ser 473) then analyzed on the BD FACSCalibur™ cytometer. This is a measure of cellular Class IA PI3K inhibition.

[6] = all three hepatocyte lots, 48 hour exposure

Question: What does the source list for `Cc1cc(-c2cncc([C@@H](O)C(F)(F)F)c2)nc2c1C(=O)N(c1cnn(CC(F)F)c1)C2(C)C` [Compound 1, (R)-6-(1-(2,2-difluoroethyl)-1H-pyrazol-4-yl)-4,7,7-trimethyl-2-(5-(2,2,2-trifluoro-1-hydroxyethyl)pyridin-3-yl)-6,7-dihydro-5H-pyrrolo[3,4-b]pyridin-5-one]?
Answer: IC50 ([1]; MCF7, 96 h, MCF7 Proliferation, 96 hours, PI3K-alpha dependent, read-out: IC50 Avg +/− SD): > 17 µM; IC50 ([1]; MCF7, MCF7 Proliferation, footnote **, read-out: Individual assay data (IC50)): 15.7 µM; selectivity over PI3K-alpha ([1]; MCF7 proliferation): > 67 fold; IC50 ([2]; THP-1, summary of cell assays, read-out: potency in PI3K-gamma associated cell assays): 0.25 µM; IC50 ([2]; THP-1/MCP-1/pAkt, PI3K-gamma dependent, read-out: IC50 Average ± Standard Deviation): 0.24 ± 0.07 µM; CYP3A4 mRNA message ([3]; 0.5 μM, lot 8123): 0.4 fold change; Testosterone-6β-Hydroxylation ([3]; 0.5 μM, lot 8123): 0.3 fold change; CYP3A4 mRNA message ([3]; 0.5 μM, lot LMP): 1.0 fold change; Testosterone-6β-Hydroxylation ([3]; 0.5 μM, lot LMP): 0.9 fold change; CYP3A4 mRNA message ([3]; 0.5 μM, lot YOW): 1.3 fold change; Testosterone-6β-Hydroxylation ([3]; 0.5 μM, lot YOW): 1.0 fold change; CYP3A4 mRNA message ([3]; 1.0 μM, lot 8123): 0.3 fold change; Testosterone-6β-Hydroxylation ([3]; 1.0 μM, lot 8123): 0.5 fold change; CYP3A4 mRNA message ([3]; 1.0 μM, lot LMP): 0.7 fold change; Testosterone-6β-Hydroxylation ([3]; 1.0 μM, lot LMP): 0.8 fold change; CYP3A4 mRNA message ([3]; 1.0 μM, lot YOW): 0.2 fold change; Testosterone-6β-Hydroxylation ([3]; 1.0 μM, lot YOW): 0.8 fold change; CYP3A4 mRNA message ([3]; 5.0 μM, lot 8123): 0.5 fold change; Testosterone-6β-Hydroxylation ([3]; 5.0 μM, lot 8123): 0.4 fold change; CYP3A4 mRNA message ([3]; 5.0 μM, lot LMP): 1.1 (1.1) fold change; Testosterone-6β-Hydroxylation ([3]; 5.0 μM, lot LMP): 1.1 (1.1) fold change; Testosterone-6β-Hydroxylation ([3]; 5.0 μM, lot YOW): 0.9 (NR^1) fold change; CYP3A4 mRNA message ([3]; 10.0 μM, lot 8123): 1.1 fold change; Testosterone-6β-Hydroxylation ([3]; 10.0 μM, lot 8123): 0.4 fold change; CYP3A4 mRNA message ([3]; 10.0 μM, lot LMP): 1.5 fold change; Testosterone-6β-Hydroxylation ([3]; 10.0 μM, lot LMP): 1.1 fold change; Testosterone-6β-Hydroxylation ([3]; 10.0 μM, lot YOW): 0.8 (NR^1) fold change; CYP3A4 mRNA message ([3]; 20.0 μM, lot 8123): 0.7 fold change; Testosterone-6β-Hydroxylation ([3]; 20.0 μM, lot 8123): 0.6 fold change; CYP3A4 mRNA message ([3]; 20.0 μM, lot LMP): 3.0 fold change; Testosterone-6β-Hydroxylation ([3]; 20.0 μM, lot LMP): 1.4 fold change; Testosterone-6β-Hydroxylation ([3]; 20.0 μM, lot YOW): 0.6 (NR^1) fold change; Testosterone-6β-Hydroxylation ([3]; 30.0 μM, lot 8123): 0.7 (NR^2) fold change; CYP3A4 mRNA message ([3]; 30.0 μM, lot LMP): 2.5 fold change; Testosterone-6β-Hydroxylation ([3]; 30.0 μM, lot LMP): 1.0 fold change; Testosterone-6β-Hydroxylation ([3]; 30.0 μM, lot YOW): 0.6 (NR^1) fold change; change in CYP3A4 activity and mRNA levels, % of the positive control [3, 6]: less than 20%; CYP1A2 mRNA message ([4]; 0.5 μM, lot 8123): 0.6 (0.6)* fold change; Phenacetin O-Dealkylation ([4]; 0.5 μM, lot 8123): 0.6 (0.6)* fold change; CYP1A2 mRNA message ([4]; 0.5 μM, lot LMP): 0.6 fold change; Phenacetin O-Dealkylation ([4]; 0.5 μM, lot LMP): 0.7 fold change; CYP1A2 mRNA message ([4]; 0.5 μM, lot YOW): 0.5 fold change; Phenacetin O-Dealkylation ([4]; 0.5 μM, lot YOW): 1.1 fold change; CYP1A2 mRNA message ([4]; 1.0 μM, lot 8123): 0.5 (0.5) fold change; Phenacetin O-Dealkylation ([4]; 1.0 μM, lot 8123): 0.5 (0.5) fold change; CYP1A2 mRNA message ([4]; 1.0 μM, lot LMP): 0.6 fold change; Phenacetin O-Dealkylation ([4]; 1.0 μM, lot LMP): 0.8 fold change; CYP1A2 mRNA message ([4]; 1.0 μM, lot YOW): 0.4 fold change; Phenacetin O-Dealkylation ([4]; 1.0 μM, lot YOW): 1.1 fold change; CYP1A2 mRNA message ([4]; 5.0 μM, lot 8123): 0.5 fold change; Phenacetin O-Dealkylation ([4]; 5.0 μM, lot 8123): 0.8 fold change; CYP1A2 mRNA message ([4]; 5.0 μM, lot LMP): 0.7 fold change; Phenacetin O-Dealkylation ([4]; 5.0 μM, lot LMP): 0.9 fold change; CYP1A2 mRNA message ([4]; 5.0 μM, lot YOW): 0.6 fold change; Phenacetin O-Dealkylation ([4]; 5.0 μM, lot YOW): 1.1 fold change; CYP1A2 mRNA message ([4]; 10.0 μM, lot 8123): 1.2 fold change; Phenacetin O-Dealkylation ([4]; 10.0 μM, lot 8123): 0.7 fold change; CYP1A2 mRNA message ([4]; 10.0 μM, lot LMP): 0.8 fold change; Phenacetin O-Dealkylation ([4]; 10.0 μM, lot LMP): 1.0 fold change; CYP1A2 mRNA message ([4]; 10.0 μM, lot YOW): 1.3 fold change; Phenacetin O-Dealkylation ([4]; 10.0 μM, lot YOW): 1.2 fold change; CYP1A2 mRNA message ([4]; 20.0 μM, lot 8123): 2.6 fold change; Phenacetin O-Dealkylation ([4]; 20.0 μM, lot 8123): 1.2 fold change; CYP1A2 mRNA message ([4]; 20.0 μM, lot LMP): 0.7 fold change; Phenacetin O-Dealkylation ([4]; 20.0 μM, lot LMP): 1.1 fold change; CYP1A2 mRNA message ([4]; 20.0 μM, lot YOW): 0.8 fold change; Phenacetin O-Dealkylation ([4]; 20.0 μM, lot YOW): 1.3 fold change; Phenacetin O-Dealkylation ([4]; 30.0 μM, lot 8123): 1.3 (NR^2) fold change; CYP1A2 mRNA message ([4]; 30.0 μM, lot LMP): 1.4 fold change; Phenacetin O-Dealkylation ([4]; 30.0 μM, lot LMP): 1.1 fold change; Phenacetin O-Dealkylation ([4]; 30.0 μM, lot YOW): 1.5 (NR^2) fold change; change in CYP1A2 activity and mRNA levels, % of the positive control [4, 6]: less than 20%; IC50 [5]: > 9.7 µM
